Tests used:
[1] = target: T1, human stromelysin (MMP-3) (Homo sapiens, UniProt P08254); assay: inhibition of the catalytic domain of human stromelysin (MMP-3), fluorogenic substrate; assay type: biochemical
T1 construct: catalytic domains of human stromelysin and of neutrophil collagenase; made in house
Experimental: (§1) Preparation and determination of the enzymatic activity of the catalytic domains of human stromelysin and of neutrophil collagenase.
(§2) The two enzymes--stromelysin (MMP-3) and neutrophil collagenase (MMP-8)--were prepared according to Ye et al., Biochemistry, vol. […] To measure the enzyme activity or the enzyme inhibitor action, 70 μl of buffer solution and 10 μl of enzyme solution are incubated for 15 minutes with 10 μl of a 10% strength (v/v) aqueous dimethyl sulfoxide solution, which optionally contains the enzyme inhibitor.
(§3) The buffer solution contains 0.05% Brij (Sigma, Deisenhofen, Germany) and also 0.1 mol/l tris/HCl, 0.1 mol/l NaCl, 0.01 mol/l CaCl2 and 0.1 mol/l piperazine-N,N'-bis[2-ethanesulfonic acid] (pH=6.5). The enzyme solution contains 5 μg/ml of one of the enzyme domains prepared according to Ye et al. The substrate solution contains 1 mmol/l of the fluorogen ic substrate (7-methoxycoumarin4-yl)acetyl-Pro-Leu-Gly-Leu-3-(2',4'-dinitrophenyl)-L-2,3-diaminopropionyl-Ala-Arg-NH2 (Bachem, Heidelberg, Germany).
(§4) The enzyme activity is shown as the extinction increase/minute.

[2] = tested on: neutrophil collagenase (MMP-8); assay: inhibition of the catalytic domain of neutrophil collagenase (MMP-8), fluorogenic substrate; assay type: biochemical, human; details: fluorescence 328 nm (ex)/393 nm (em), pH=6.5, 15 min preincubation
Experimental: as §1, §2, §3, §4

T1 sequence (P08254 100-273 limits assumed): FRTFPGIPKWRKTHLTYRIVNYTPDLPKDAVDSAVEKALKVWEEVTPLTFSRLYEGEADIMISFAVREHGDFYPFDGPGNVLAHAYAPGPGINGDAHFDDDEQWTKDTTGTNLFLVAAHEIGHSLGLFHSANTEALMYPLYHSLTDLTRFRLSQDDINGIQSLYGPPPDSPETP

With `COc1ccc(S(=O)(=O)N2Cc3cc(N)ccc3C[C@@H]2C(=O)NO)cc1` [Example 10, 2-(4-Methoxybenzenesulfonyl)-7-amino-1,2,3,4-tetrahydroisoquinoline-(R)-3-(N-hydroxy)carboxamide] the IC50 [1] was 10 nM.
In the case of `COc1ccc(S(=O)(=O)N2Cc3cc(NC(=O)OC(C)(C)C)ccc3C[C@@H]2C(=O)NO)cc1` [Example 11], the IC50 [2] is reported as 3 nM and the IC50 [1] is reported as 20 nM.
`O=C(O)[C@H]1Cc2ccc([N+](=O)[O-])cc2CN1S(=O)(=O)c1ccc(-c2ccc(Cl)cc2)cc1` [Example 15] gave an IC50 [2] of 30 nM.
In the case of `O=C(O)[C@H]1Cc2cc([N+](=O)[O-])ccc2CN1S(=O)(=O)c1ccc(-c2ccc(Cl)cc2)cc1` [Example 16], the IC50 [2] is reported as 20 nM.
With `O=C(O)[C@H]1Cc2ccc([N+](=O)[O-])cc2CN1S(=O)(=O)c1ccc(-c2ccc(F)cc2)cc1` [Example 17] the IC50 [2] was 40 nM.
In the case of `O=C(O)[C@H]1Cc2cc([N+](=O)[O-])ccc2CN1S(=O)(=O)c1ccc(-c2ccc(F)cc2)cc1` [Example 18], the IC50 [2] is reported as 20 nM.
`CC(C)(C)OC(=O)Nc1ccc2c(c1)CN(S(=O)(=O)c1ccc(-c3ccc(F)cc3)cc1)[C@@H](C(=O)O)C2` [Example 20] showed an IC50 [2] of 100 nM and an IC50 [1] of 2000 nM.
Work on `Nc1ccc2c(c1)C[C@H](C(=O)O)N(S(=O)(=O)c1ccc(-c3ccc(F)cc3)cc1)C2` [Example 21] yielded an IC50 [2] of 8 nM and an IC50 [1] of 200 nM.
`Nc1ccc2c(c1)CN(S(=O)(=O)c1ccc(-c3ccc(F)cc3)cc1)[C@@H](C(=O)O)C2` [Example 22] gave an IC50 [2] of 8 nM and an IC50 [1] of 300 nM.
`C[C@H](NC(=O)OCc1ccccc1)C(=O)Nc1ccc2c(c1)CN(S(=O)(=O)c1ccc(-c3ccc(Cl)cc3)cc1)[C@@H](C(=O)O)C2` [Example 24] gave an IC50 [2] of 60 nM and an IC50 [1] of 300 nM.
`CC(N)C(=O)Nc1ccc2c(c1)CN(S(=O)(=O)c1ccc(-c3ccc(Cl)cc3)cc1)[C@@H](C(=O)O)C2` (some centres unmarked) [Example 25] gave an IC50 [2] of 10 nM and an IC50 [1] of 200 nM.
`CC(C)(C)OC(=O)Nc1ccc2c(c1)CN(S(=O)(=O)c1ccc(-c3ccc(F)cc3)cc1)[C@@H](C(=O)NO)C2` [Example 27] showed an IC50 [2] of 10 nM and an IC50 [1] of 100 nM.
With `Nc1ccc2c(c1)CN(S(=O)(=O)c1ccc(-c3ccc(F)cc3)cc1)[C@@H](C(=O)NO)C2` [Example 28] the IC50 [2] was 2 nM and the IC50 [1] was 20 nM.
Compound `COc1ccc(S(=O)(=O)N2Cc3cc(NC(=O)[C@H](C)N)ccc3C[C@@H]2C(=O)NO)cc1` [Example 30] has an IC50 [1] of 30 nM.
`COc1ccc(S(=O)(=O)N2Cc3cc(NC(=O)CCC(=O)O)ccc3C[C@@H]2C(=O)NO)cc1` [Example 31] gave an IC50 [2] of 4 nM and an IC50 [1] of 20 nM.
With `COc1ccc(S(=O)(=O)N2Cc3cc(NC(=O)[C@H](CC(=O)OC(C)(C)C)NC(=O)OCc4ccccc4)ccc3C[C@@H]2C(=O)NO)cc1` [Example 32] the IC50 [2] was 10 nM and the IC50 [1] was 400 nM.

Reference: patent US5962471A, “Substituted 6- and 7-aminotetrahydroisoquinolinecarboxylic acids” (Hoechst Aktiengesellschaft, priority 1997, dated 1999)
